Measurements published in patent publication US20230111310A1, “CARBOXYLIC ACID DERIVATIVE-SUBSTITUTED IMINO ARYL COMPOUND, PREPARATION METHOD THEREFOR, HERBICIDAL COMPOSITION AND USE THEREOF” (Qingdao Kingagroot Chemical Compound Co., Ltd., priority 2020, published 2023).

tested on: Digitaria sanguinalis; test: Weeding effect in post-emergence stage; format: in vivo; details: Dose 15 g/ha; level of fresh weight growth control rate
Procedure, shortened: (§1)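 Weeds were treated post-emergence at 2-3 leaves with compound doses from 7.5 up to 500 g/ha, formulated in acetone–Tween 80 with methyl oleate synergist. Efficacy was assessed as growth control after 3 weeks.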

Row | Compound | Weeding effect in post-emergence stage, Digitaria sanguinalis
1 | COC[C@@H](O/N=C/c1cc(-n2c(=O)n(C)c(=S)n(C)c2=O)c(F)cc1Cl)C(=O)OC [80(R)] | 5 (Level 5: growth control rate is above 85%)
2 | COC(=O)[C@@H](C)O/N=C/c1cc(-n2c(=O)n(C)c(=S)n(C)c2=O)c(F)cc1Br [83(R)] | 4 (Level 4: growth control rate is greater than or equal to 60% and less than 85%)
3 | CCOC(=O)[C@@H](C)O/N=C/c1cc(-n2c(=O)n(C)c(=S)n(C)c2=O)c(F)cc1Br [84(R)] | 4 (Level 4: growth control rate is greater than or equal to 60% and less than 85%)
4 | COC(=O)[C@@H](C)O/N=C/c1cc(-n2c(=O)n(C)c(=S)n(C)c2=O)c(F)cc1C(F)(F)F [85(R)] | 5 (Level 5: growth control rate is above 85%)
5 | CCOC(=O)[C@@H](C)O/N=C/c1cc(-n2c(=O)n(C)c(=S)n(C)c2=O)c(F)cc1C(F)(F)F [86(R)] | 3 (Level 3: growth control rate is greater than or equal to 40% and less than 60%)

tested on: Abutilon theophrasti; test: Weeding effect in post-emergence stage; format: in vivo; details: Dose 15 g/ha; level of fresh weight growth control rate
Procedure, shortened: as §1

Row | Compound | Weeding effect in post-emergence stage, Abutilon theophrasti
6 | COC[C@@H](O/N=C/c1cc(-n2c(=O)n(C)c(=S)n(C)c2=O)c(F)cc1Cl)C(=O)OC [80(R)] | 5 (Level 5: growth control rate is above 85%)
7 | COC(=O)[C@@H](C)O/N=C/c1cc(-n2c(=O)n(C)c(=S)n(C)c2=O)c(F)cc1Br [83(R)] | 5 (Level 5: growth control rate is above 85%)
8 | CCOC(=O)[C@@H](C)O/N=C/c1cc(-n2c(=O)n(C)c(=S)n(C)c2=O)c(F)cc1Br [84(R)] | 5 (Level 5: growth control rate is above 85%)
9 | COC(=O)[C@@H](C)O/N=C/c1cc(-n2c(=O)n(C)c(=S)n(C)c2=O)c(F)cc1C(F)(F)F [85(R)] | 5 (Level 5: growth control rate is above 85%)
10 | CCOC(=O)[C@@H](C)O/N=C/c1cc(-n2c(=O)n(C)c(=S)n(C)c2=O)c(F)cc1C(F)(F)F [86(R)] | 5 (Level 5: growth control rate is above 85%)

tested on: Eleusine indica; test: Weeding effect in post-emergence stage; format: in vivo; details: Dose 15 g/ha; level of fresh weight growth control rate
Procedure, shortened: as §1

Row | Compound | Weeding effect in post-emergence stage, Eleusine indica
11 | COC[C@@H](O/N=C/c1cc(-n2c(=O)n(C)c(=S)n(C)c2=O)c(F)cc1Cl)C(=O)OC [80(R)] | 5 (Level 5: growth control rate is above 85%)
12 | COC(=O)[C@@H](C)O/N=C/c1cc(-n2c(=O)n(C)c(=S)n(C)c2=O)c(F)cc1Br [83(R)] | 5 (Level 5: growth control rate is above 85%)
13 | CCOC(=O)[C@@H](C)O/N=C/c1cc(-n2c(=O)n(C)c(=S)n(C)c2=O)c(F)cc1Br [84(R)] | 5 (Level 5: growth control rate is above 85%)
14 | COC(=O)[C@@H](C)O/N=C/c1cc(-n2c(=O)n(C)c(=S)n(C)c2=O)c(F)cc1C(F)(F)F [85(R)] | 5 (Level 5: growth control rate is above 85%)
15 | CCOC(=O)[C@@H](C)O/N=C/c1cc(-n2c(=O)n(C)c(=S)n(C)c2=O)c(F)cc1C(F)(F)F [86(R)] | 5 (Level 5: growth control rate is above 85%)

tested on: Setaria viridis; test: Weeding effect in post-emergence stage; format: in vivo; details: Dose 15 g/ha; level of fresh weight growth control rate
Procedure, shortened: as §1

Row | Compound | Weeding effect in post-emergence stage, Setaria viridis
16 | COC[C@@H](O/N=C/c1cc(-n2c(=O)n(C)c(=S)n(C)c2=O)c(F)cc1Cl)C(=O)OC [80(R)] | 5 (Level 5: growth control rate is above 85%)
17 | COC(=O)[C@@H](C)O/N=C/c1cc(-n2c(=O)n(C)c(=S)n(C)c2=O)c(F)cc1Br [83(R)] | 5 (Level 5: growth control rate is above 85%)
18 | CCOC(=O)[C@@H](C)O/N=C/c1cc(-n2c(=O)n(C)c(=S)n(C)c2=O)c(F)cc1Br [84(R)] | 5 (Level 5: growth control rate is above 85%)
19 | COC(=O)[C@@H](C)O/N=C/c1cc(-n2c(=O)n(C)c(=S)n(C)c2=O)c(F)cc1C(F)(F)F [85(R)] | 5 (Level 5: growth control rate is above 85%)
20 | CCOC(=O)[C@@H](C)O/N=C/c1cc(-n2c(=O)n(C)c(=S)n(C)c2=O)c(F)cc1C(F)(F)F [86(R)] | 4 (Level 4: growth control rate is greater than or equal to 60% and less than 85%)

tested on: Alopecurus japonicus; test: Weeding effect in post-emergence stage; format: in vivo; details: Dose 15 g/ha; level of fresh weight growth control rate
Procedure, shortened: as §1

Row | Compound | Weeding effect in post-emergence stage, Alopecurus japonicus
21 | COC[C@@H](O/N=C/c1cc(-n2c(=O)n(C)c(=S)n(C)c2=O)c(F)cc1Cl)C(=O)OC [80(R)] | 5 (Level 5: growth control rate is above 85%)
22 | COC(=O)[C@@H](C)O/N=C/c1cc(-n2c(=O)n(C)c(=S)n(C)c2=O)c(F)cc1Br [83(R)] | 4 (Level 4: growth control rate is greater than or equal to 60% and less than 85%)
23 | CCOC(=O)[C@@H](C)O/N=C/c1cc(-n2c(=O)n(C)c(=S)n(C)c2=O)c(F)cc1Br [84(R)] | 4 (Level 4: growth control rate is greater than or equal to 60% and less than 85%)
24 | COC(=O)[C@@H](C)O/N=C/c1cc(-n2c(=O)n(C)c(=S)n(C)c2=O)c(F)cc1C(F)(F)F [85(R)] | 4 (Level 4: growth control rate is greater than or equal to 60% and less than 85%)
25 | CCOC(=O)[C@@H](C)O/N=C/c1cc(-n2c(=O)n(C)c(=S)n(C)c2=O)c(F)cc1C(F)(F)F [86(R)] | 3 (Level 3: growth control rate is greater than or equal to 40% and less than 60%)

tested on: Echinochloa crusgalli; test: Weeding effect in post-emergence stage; format: in vivo; details: Dose 15 g/ha; level of fresh weight growth control rate
Procedure, shortened: as §1

Row | Compound | Weeding effect in post-emergence stage, Echinochloa crusgalli
26 | COC[C@@H](O/N=C/c1cc(-n2c(=O)n(C)c(=S)n(C)c2=O)c(F)cc1Cl)C(=O)OC [80(R)] | 5 (Level 5: growth control rate is above 85%)
27 | COC(=O)[C@@H](C)O/N=C/c1cc(-n2c(=O)n(C)c(=S)n(C)c2=O)c(F)cc1Br [83(R)] | 5 (Level 5: growth control rate is above 85%)
28 | CCOC(=O)[C@@H](C)O/N=C/c1cc(-n2c(=O)n(C)c(=S)n(C)c2=O)c(F)cc1Br [84(R)] | 5 (Level 5: growth control rate is above 85%)
29 | COC(=O)[C@@H](C)O/N=C/c1cc(-n2c(=O)n(C)c(=S)n(C)c2=O)c(F)cc1C(F)(F)F [85(R)] | 5 (Level 5: growth control rate is above 85%)
30 | CCOC(=O)[C@@H](C)O/N=C/c1cc(-n2c(=O)n(C)c(=S)n(C)c2=O)c(F)cc1C(F)(F)F [86(R)] | 4 (Level 4: growth control rate is greater than or equal to 60% and less than 85%)
